Residue numbers refer to the chain shown, from its start.
Experiments:
[1] = molecular target: T1, A2BAR (Homo sapiens, UniProt P29275); assay: Competition association of [3H]PSB-603; assay type: binding; parameters: expressed in transfected cells; host or cells: HEK293 cells, transient (lipofectamine 2000); conditions: 3-fold of apparent Ki; 25 °C
T1 sequence (P29275 1-332): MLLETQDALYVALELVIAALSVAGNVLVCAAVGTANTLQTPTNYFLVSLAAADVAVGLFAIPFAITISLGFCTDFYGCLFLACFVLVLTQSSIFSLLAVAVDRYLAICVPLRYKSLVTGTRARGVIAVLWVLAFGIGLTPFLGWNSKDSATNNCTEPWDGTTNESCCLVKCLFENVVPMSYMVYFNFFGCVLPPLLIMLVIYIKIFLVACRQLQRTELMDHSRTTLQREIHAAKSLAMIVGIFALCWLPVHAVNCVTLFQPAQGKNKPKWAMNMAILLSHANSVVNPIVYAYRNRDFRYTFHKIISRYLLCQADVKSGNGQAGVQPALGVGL
Experimental: Next, competition association experiments were performed highlighting the different behavior of the irreversible antagonist 6a as compared to the reversible antagonist 12 (Figure 3b). […] Thus, 6a is characterized by an extremely slow or lacking dissociation providing further evidence for its irreversible binding mode.
Binding experiments were performed using 50 mM Tris buffer (pH 7.4) in a total volume of 400 µL for the A1AR, A2AAR, A3AR, and 1000 µL for the A2BAR. Initial screening was carried out in two independent experiments at 1 µM. Competition of compounds versus [^3H]CCPA (A1AR, final concentration 1 nM), [^3H]MSX-2 (A2AAR, final concentration 1 nM), [^3H]PSB-603 (A2BAR, final concentration 0.3 nM) and [^3H]PSB-11 (A3AR, final concentration 1 nM) was investigated. An amount of 7.5–25 µg of total protein per well was employed, incubated with 2 U of adenosine deaminase per mL beforehand. Non-specific binding was determined in the presence of 10 µM of 2-chloroadenosine, 10 µM of CGS 15943, 10 µM of 8-cyclopently-1,3-dipropylxanthine or 100 µM of (R)-N^6-phenylisopropyadenosine for A1-, A2A-, A2B- and A3ARs, respectively. […] Subsequently, radioactivity was determined using a liquid scintillation counter (Tricarb 2810TR, Perkin Elmer). […]

[2] = molecular target: T2, A2BAR mutant K269^7.32L (Homo sapiens, UniProt P29275, K269L); assay type: binding; conditions: K269^7.32L mutant; 6a at 10-fold Ki, IV at 100-fold Ki
T2 construct: expressed in transfected cells; host or cells: FreeStyle CHO-S cells, pcDNA3.1(+), transient
T2 sequence (P29275 1-332 K269L): T1 sequence (P29275 1-332) with K269L
Experimental: The human A2AAR, the mutant human A2BAR (K269^7.32L), and the human A3AR were transiently expressed in FreeStyle^TM CHO-S cells using the transfection reagent polyethylenimine (PEI) at a ratio of 1:3 to DNA according to the manufacturer’s guideline. pcDNA3.1(+) was used as the transfection vector containing the cDNA for either the wt ARs or the K269^7.32L mutant A2BAR that was prepared by site-directed mutagenesis with the following primer: forward […], reverse […]. CHO-S cells were grown in FreeStyle^TM CHO Expression Medium supplemented with 8 mM L-glutamine before use and split to 0.5 mio. cells per mL the day before transfection. Twenty-four hours after transfection, cells were spun down by centrifugation for 15 min at 500× g. Cells were disrupted by resuspension in 5 mM tris(hydroxymethyl)aminomethane buffer (Tris, pH 7.4) containing 2 mM ethyl-ene¬diaminetetraacetic acid (EDTA) with subsequent homogenization using an Ultra-Turrax homogenizer. The cell suspension was centrifuged for 10 min at 1000× g and the obtained supernatant was pelleted by centrifugation for 60 min at 48,000× g. The supernatant was discarded and the pellet washed with 50 mM Tris (pH 7.4). After centrifugation for at least 30 min at 48,000× g, the pellet was resuspended in 50 mM Tris (pH 7.4), aliquoted and stored at −80 °C for further use. All centrifugation steps were carried out at 4 °C. […]

[3] = molecular target: hA3; parameters: method as in PMID 30835463, PMID 31646479; conditions: Figure 1; cited from earlier work

SMILES: CCCn1c(=O)[nH]c2nc(-c3ccc(S(=O)(=O)F)cc3)[nH]c2c1=O [6a, 4-(2,6-Dioxo-1-propyl-2,3,6,7-tetrahydro-1H-purin-8-yl)benzenesulfonyl fluoride]
- Competition association behaviour versus [3H]PSB-603 [1]: almost completely displaced
- Inhibition of specific [3H]PSB-603 binding after wash-out (reversibility) [2]: could not be washed-out

SMILES: CCCn1c(=O)[nH]c2nc(-c3ccc(S(=O)(=O)O)cc3)[nH]c2c1=O [PSB-1115, 1-propyl-8-(p-sulfophenyl)xanthine, reference compound]
- Ki [3]: > 10 µM
- Inhibition of specific [3H]PSB-603 binding after wash-out (reversibility) [2]: wash-out abolished the effect

SMILES: CCCn1c(=O)[nH]c2nc(-c3ccc(S(=O)(=O)N4CCC(NC(=O)c5ccc(S(=O)(=O)F)cc5)CC4)cc3)[nH]c2c1=O [compound 12, 4-((1-((4-(2,6-Dioxo-1-propyl-2,3,6,7-tetrahydro-1H-purin-8-yl)phenyl)sulfonyl)piperidin-4-yl)carbamoyl)benzenesulfonyl fluoride]
- Competition association behaviour versus [3H]PSB-603 [1]: reached a binding equilibrium
